Results: ChEMBL document CHEMBL1201862, “PubChem BioAssay data set” (2004)
The source made the active and inactive calls.

Columns and labels:
[1] = Artemis endonuclease inhibitor potency, dose response, biochemical, fluorescence intensity (AID 720701); type: functional;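 also: Artemis endonuclease enzyme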
[2] = molecular target: T1, Exodeoxyribonuclease V (Escherichia coli (strain K12), UniProt P04993+P07648+P08394); assay: E. coli RecBCD inhibitors, dose response, counter-screen for AddAB inhibitor project, absorbance, V66 E. coli, mutant T4 phage (AID 492957); type: functional, cell-based, Escherichia coli str. K-12 substr. MG1655
T1 sequence (P04993 whole entry): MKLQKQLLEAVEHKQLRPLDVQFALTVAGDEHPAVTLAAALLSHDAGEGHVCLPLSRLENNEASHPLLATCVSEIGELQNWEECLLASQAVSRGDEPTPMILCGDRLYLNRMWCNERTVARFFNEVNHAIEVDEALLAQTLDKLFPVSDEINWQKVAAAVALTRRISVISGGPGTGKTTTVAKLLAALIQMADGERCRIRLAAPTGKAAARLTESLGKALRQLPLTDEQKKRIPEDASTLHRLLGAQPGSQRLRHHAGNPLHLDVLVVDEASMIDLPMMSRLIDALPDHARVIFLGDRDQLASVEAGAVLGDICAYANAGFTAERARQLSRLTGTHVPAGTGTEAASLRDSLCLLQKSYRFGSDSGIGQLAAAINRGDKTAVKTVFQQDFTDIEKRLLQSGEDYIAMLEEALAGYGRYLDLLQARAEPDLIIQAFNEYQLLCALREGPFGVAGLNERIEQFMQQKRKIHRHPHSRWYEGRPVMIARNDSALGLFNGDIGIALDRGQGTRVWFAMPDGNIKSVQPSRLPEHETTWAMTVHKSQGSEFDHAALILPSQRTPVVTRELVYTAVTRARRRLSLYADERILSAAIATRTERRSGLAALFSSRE
T1 sequence (P07648 whole entry): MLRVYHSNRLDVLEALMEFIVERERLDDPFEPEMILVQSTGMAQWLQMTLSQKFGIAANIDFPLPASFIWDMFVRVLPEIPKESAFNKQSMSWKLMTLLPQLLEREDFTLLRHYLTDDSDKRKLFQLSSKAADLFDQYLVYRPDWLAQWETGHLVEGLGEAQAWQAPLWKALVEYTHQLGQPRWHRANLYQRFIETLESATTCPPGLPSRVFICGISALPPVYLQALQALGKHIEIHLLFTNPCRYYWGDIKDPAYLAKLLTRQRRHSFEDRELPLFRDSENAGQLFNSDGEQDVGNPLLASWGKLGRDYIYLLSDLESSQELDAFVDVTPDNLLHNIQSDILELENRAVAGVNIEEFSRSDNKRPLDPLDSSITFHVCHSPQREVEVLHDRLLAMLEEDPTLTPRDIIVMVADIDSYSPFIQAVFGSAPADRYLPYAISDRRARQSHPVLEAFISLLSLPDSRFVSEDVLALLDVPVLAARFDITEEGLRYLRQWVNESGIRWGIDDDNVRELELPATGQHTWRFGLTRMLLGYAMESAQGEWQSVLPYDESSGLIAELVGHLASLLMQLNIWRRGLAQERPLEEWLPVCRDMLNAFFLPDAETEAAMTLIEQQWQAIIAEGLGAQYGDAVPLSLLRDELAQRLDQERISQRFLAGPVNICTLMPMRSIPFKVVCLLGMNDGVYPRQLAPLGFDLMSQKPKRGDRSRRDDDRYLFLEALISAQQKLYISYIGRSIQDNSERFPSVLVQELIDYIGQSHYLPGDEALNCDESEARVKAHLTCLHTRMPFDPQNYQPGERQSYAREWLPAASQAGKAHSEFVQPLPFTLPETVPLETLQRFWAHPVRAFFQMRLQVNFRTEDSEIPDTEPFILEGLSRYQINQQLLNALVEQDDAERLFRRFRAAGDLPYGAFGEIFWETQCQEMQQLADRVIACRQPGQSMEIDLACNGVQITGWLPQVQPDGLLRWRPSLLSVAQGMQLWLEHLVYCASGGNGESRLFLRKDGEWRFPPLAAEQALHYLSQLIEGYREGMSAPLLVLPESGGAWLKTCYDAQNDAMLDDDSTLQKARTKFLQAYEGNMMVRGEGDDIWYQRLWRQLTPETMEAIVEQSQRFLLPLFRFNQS
T1 sequence (P08394 whole entry): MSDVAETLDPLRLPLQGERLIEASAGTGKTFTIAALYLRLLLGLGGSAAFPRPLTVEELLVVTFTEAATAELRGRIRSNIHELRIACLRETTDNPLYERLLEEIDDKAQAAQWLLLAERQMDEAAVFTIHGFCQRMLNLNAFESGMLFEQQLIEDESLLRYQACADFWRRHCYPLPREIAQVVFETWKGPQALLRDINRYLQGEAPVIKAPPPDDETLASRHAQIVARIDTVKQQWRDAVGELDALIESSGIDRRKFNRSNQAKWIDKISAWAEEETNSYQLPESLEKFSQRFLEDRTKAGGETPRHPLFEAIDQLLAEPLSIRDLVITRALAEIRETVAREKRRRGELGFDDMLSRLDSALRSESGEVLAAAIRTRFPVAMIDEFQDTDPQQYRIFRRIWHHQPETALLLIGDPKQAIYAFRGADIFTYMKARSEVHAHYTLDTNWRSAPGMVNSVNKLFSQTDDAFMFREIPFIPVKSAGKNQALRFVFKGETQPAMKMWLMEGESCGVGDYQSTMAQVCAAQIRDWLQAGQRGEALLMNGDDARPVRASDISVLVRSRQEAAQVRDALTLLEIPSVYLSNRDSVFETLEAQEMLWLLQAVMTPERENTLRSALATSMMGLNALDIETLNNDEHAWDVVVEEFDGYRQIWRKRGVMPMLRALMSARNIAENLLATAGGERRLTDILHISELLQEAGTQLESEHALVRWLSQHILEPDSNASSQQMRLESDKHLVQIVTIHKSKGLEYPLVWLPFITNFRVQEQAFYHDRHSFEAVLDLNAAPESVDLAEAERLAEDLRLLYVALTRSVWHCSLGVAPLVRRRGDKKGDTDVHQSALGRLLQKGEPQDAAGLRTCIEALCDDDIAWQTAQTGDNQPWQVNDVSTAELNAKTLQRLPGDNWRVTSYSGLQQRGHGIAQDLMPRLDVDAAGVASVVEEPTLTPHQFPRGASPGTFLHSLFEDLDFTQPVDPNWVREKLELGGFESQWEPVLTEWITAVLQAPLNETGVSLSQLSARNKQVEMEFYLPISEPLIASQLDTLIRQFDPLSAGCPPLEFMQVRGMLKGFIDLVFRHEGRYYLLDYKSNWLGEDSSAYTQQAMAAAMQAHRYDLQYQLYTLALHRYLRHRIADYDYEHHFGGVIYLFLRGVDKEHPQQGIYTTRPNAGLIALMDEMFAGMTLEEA

Row | SMILES | IC50 [1] | IC50 [2]
1 | Nc1ccc2c(c1)C(=O)C(=O)c1ccccc1-2 | < 0.63 µM (active) | –
2 | Cc1ccc2nc(/C(C#N)=C\c3ccc([N+](=O)[O-])o3)[nH]c2c1 | – | > 119 µM (inactive)
3 | CCCC(=O)NC(c1ccccc1OC)c1ccc2cccnc2c1O (stereo not drawn) | – | > 119 µM (inactive)
